Measured values taken from patent US12024513B2, “NLRP3 modulators” (INNATE TUMOR IMMUNITY, INC., priority 2018, dated 2024).

These compounds were tested against T1, NLRP3 (Homo sapiens, UniProt Q96P20) (assay: Measurement of IL-1β production in PMA-differentiated THP-1 cells (NLRP3 hIL1B)). Conditions: one or more of the described procedures.
T1 construct: host or cells: THP-1 cells, PMA-differentiated
Assay type: cell-based
Procedure: Measurement of IL-1β Production in PMA-Differentiated THP-1 Cells
THP-1 cells were purchased from the American Type Culture Collection and sub-cultured according to instructions from the supplier. Prior to experiments, cells were cultured in RPMI 1640 containing 10% heat inactivated FBS, penicillin (100 units/ml) and streptomycin (100 μg/ml), and maintained in log phase prior to experimental setup. Prior to the experiment THP-1 were treated with PMA (Phorbol 12-myristate 13-acetate) (10 μg/ml) for 24 hours. The day of the experiment the media was removed and attaching cells were treated with trypsin for 2 minutes, cells were then collected, washed with PBS (phosphate buffer saline), spin down, resuspended in 2% heat inactivated FBS with RPMI at a concentration of 1×10^6 cells/ml, and 100 μl was plated in a 96 well plate. Compounds were dissolved in dimethyl sulfoxide (DMSO) and added to the culture medium to achieve desired concentration (e.g. 100, 30, 10, 3, 1, 0.3 or 0.1 μM). Cells were incubated with compounds for 4 hours. Cell free supernatant was collected and the production of IL-1β was evaluated by ELISA. A vehicle only control was run concurrently with each experiment. Final DMSO concentration was 1%.
Measurement of IL-1β Production in PMA-Differentiated THP-1 Cells (Alternative Procedure)
THP-1 cells were purchased from the American Type Culture Collection and sub-cultured according to instructions from the supplier. Prior to experiments, cells were cultured in RPMI 1640 containing 10% heat inactivated FBS, penicillin (100 units/ml), streptomycin (100 μg/ml), HEPES (10 mM) and sodium pyruvate (1 mM) and maintained in log phase prior to experimental setup. Prior to the experiment, THP-1 cells were treated with PMA (Phorbol 12-myristate 13-acetate) (20 μg/ml) overnight. The day of the experiment, the media was removed and attached cells were treated with trypsin for 2 minutes, cells were then collected, washed with PBS (phosphate buffer saline), pelleted by centrifugation and resuspended in 2% heat inactivated FBS with RPMI at a concentration of 50,000 cells/well in a 384 well plate. Cell free supernatant was collected and the production of IL-1β was evaluated by ELISA. Compounds were dissolved in dimethyl sulfoxide (DMSO) and added to the culture medium to achieve desired concentration (e.g. 100, 30, 10, 3, 1, 0.3 or 0.1 μM). Cells were incubated with compounds for 2 hours. A vehicle only control was run concurrently with each experiment. Final DMSO concentration was 1%.
Measurement of IL-1β Production—hTRF Protocol (Second Alternative Procedure)
Serial dilutions of compounds in DMSO were added to low volume 384 well plates at 100 nl/well using an ECHO 550 acoustic dispenser (Labcyte) to achieve final starting concentration of 10 μM in assay.
THP-1 cells in RPMI (Gibco, 11875) media with 10% FBS at a density of 1×10^6 cell/ml in a T175 flask were treated with a final concentration of phorbol 12-myristate 13-acetate (PMA) (Sigma, PI585) of 50 ng/ml overnight at 37° C. at 5% CO2 for differentiation. Cells were harvested the next day after rinsing well wth dPBS using 0.5% trypsin. A cell solution was prepared of 1×10^6 cells/ml for 50,000 cells in 50 μl/well in RPMI media with 2% FBS. Cells were plated using a multichannel pipette onto the compound dilutions in Greiner, 384 well, black clear bottom tissue culture treated plates (781090). The plates were incubated in 37° C. incubator at 5% CO2 for 2 hours.
After the 2 hour incubation, the cell plates were spun in the centrifuge for 5 minutes at 1200 rpm. Using the Felix (CyBio), 8 μl of the supernatant was transferred to 384 well, low volume, white proxy plates. (Perkin Elmer, 6008230). A human ILlbeta hTRF kit was used to analyze the supernatant (CISBIO, 62HIL1BPEG). The kit instructions were followed for preparing the IL1Beta standard curve and then the antibodies from the kit were diluted 1:40 rather than 1:20 as kit instructed. […]

T1 sequence (Q96P20 whole entry): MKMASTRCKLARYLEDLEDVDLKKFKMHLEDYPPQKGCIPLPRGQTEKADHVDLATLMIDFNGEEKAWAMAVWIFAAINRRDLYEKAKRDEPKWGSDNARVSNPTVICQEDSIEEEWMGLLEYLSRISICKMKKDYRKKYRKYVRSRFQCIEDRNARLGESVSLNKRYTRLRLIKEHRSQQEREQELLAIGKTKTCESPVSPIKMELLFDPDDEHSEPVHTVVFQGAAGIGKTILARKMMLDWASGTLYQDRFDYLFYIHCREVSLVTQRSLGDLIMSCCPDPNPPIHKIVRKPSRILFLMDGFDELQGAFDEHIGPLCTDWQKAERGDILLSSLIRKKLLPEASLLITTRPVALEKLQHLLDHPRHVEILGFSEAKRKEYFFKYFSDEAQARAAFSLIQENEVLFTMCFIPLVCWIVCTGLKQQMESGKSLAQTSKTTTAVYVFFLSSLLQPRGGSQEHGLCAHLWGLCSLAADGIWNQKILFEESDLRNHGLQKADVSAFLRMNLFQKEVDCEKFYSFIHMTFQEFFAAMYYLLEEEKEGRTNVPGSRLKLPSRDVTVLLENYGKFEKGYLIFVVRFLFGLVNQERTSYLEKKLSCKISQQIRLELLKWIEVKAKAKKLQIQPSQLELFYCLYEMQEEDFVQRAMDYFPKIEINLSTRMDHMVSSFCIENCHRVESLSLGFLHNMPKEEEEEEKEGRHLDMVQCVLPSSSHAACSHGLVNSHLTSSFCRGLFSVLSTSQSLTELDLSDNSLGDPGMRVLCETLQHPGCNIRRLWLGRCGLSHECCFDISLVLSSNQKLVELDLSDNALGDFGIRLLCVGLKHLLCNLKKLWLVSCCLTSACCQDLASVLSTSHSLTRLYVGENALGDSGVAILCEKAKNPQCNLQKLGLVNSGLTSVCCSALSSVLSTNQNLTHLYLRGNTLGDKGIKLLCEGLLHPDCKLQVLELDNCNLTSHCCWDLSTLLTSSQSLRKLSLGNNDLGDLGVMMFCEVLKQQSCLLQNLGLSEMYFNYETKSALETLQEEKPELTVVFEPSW

IC50	SMILES
1320 nM	Nc1nc2cc(-c3cc[nH]n3)ccc2c2c1nc(CCNC(=O)C1CCCCO1)n2CC(F)F (centres unmarked) [Example 17]
790 nM	Nc1nc2cc(-c3cc[nH]n3)ccc2c2c1nc(CNC(=O)C1CCCCO1)n2CC(F)F (centres unmarked) [Example 19]
180 nM	COc1ccc(C(=O)NCCc2nc3c(N)nc4cc(-c5cc[nH]n5)ccc4c3n2C2CCC2)nc1 [Example 7]
410 nM	Nc1nc2cc(-c3cc[nH]n3)ccc2c2c1nc(CCNC(=O)c1ccccn1)n2C1CCC1 [Example 6]
1240 nM	COc1ccc(C(=O)NCCc2nc3c(N)nc4cc(-c5cc[nH]n5)ccc4c3n2C2CC2)nc1 [Example 13]
220 nM	CC(C)n1c(CNC(=O)C2CCCO2)nc2c(N)nc3cc(-c4cc[nH]n4)ccc3c21 (centres unmarked) [Example 16]
120 nM	Nc1nc2cc(-c3cc[nH]n3)ccc2c2c1nc(CCNC(=O)c1ccc(F)cn1)n2C1CCC1 [Example 1, N-{2-[4-amino-1-cyclobutyl-7-(1H-pyrazol-5-yl)-1H-imidazo[4,5-c]quinolin-2-yl]ethyl}-5-fluoropyridine-2-carboxamide]
590 nM	Nc1nc2cc(-c3cc[nH]n3)ccc2c2c1nc(CCNC(=O)c1csc(Cl)n1)n2CC(F)F [Example 11]
70 nM	CC(C)n1c(CCNC(=O)c2ccccn2)nc2c(N)nc3cc(-c4cc[nH]n4)ccc3c21 [Example 2]
270 nM	COc1ccc(C(=O)NCCc2nc3c(N)nc4cc(-c5cc[nH]n5)ccc4c3n2C(C)C)nc1 [Example 12]
440 nM	Nc1nc2cc(-c3cc[nH]n3)ccc2c2c1nc(CCNC(=O)c1ccccn1)n2C1CC1 [Example 5]
120 nM	CC(C)n1c(CCNC(=O)c2ccc(F)cn2)nc2c(N)nc3cc(-c4cc[nH]n4)ccc3c21 [Example 9]
1940 nM	CC(C)n1c(CCNC(=O)C2CCCO2)nc2c(N)nc3cc(-c4cc[nH]n4)ccc3c21 (centres unmarked) [Example 18]
240 nM	CC(C)n1c(CNC(=O)c2ccccn2)nc2c(N)nc3cc(-c4cc[nH]n4)ccc3c21 [Example 14]
270 nM	Nc1nc2cc(-c3cc[nH]n3)ccc2c2c1nc(CCNC(=O)c1ccc(F)cn1)n2C1CC1 [Example 8]
220 nM	Nc1nc2cc(-c3cc[nH]n3)ccc2c2c1nc(CCNC(=O)c1ccccn1)n2CC(F)F [Example 3]
1880 nM	Nc1nc2cc(-c3cc[nH]n3)ccc2c2c1nc(CNC(=O)C1CCCO1)n2CC(F)F (centres unmarked) [Example 20]
340 nM	Nc1nc2cc(-c3cc[nH]n3)ccc2c2c1nc(CCNC(=O)c1ccc(F)cn1)n2CC(F)F [Example 4]
160 nM	CC(C)n1c(CCNC(=O)c2csc(Cl)n2)nc2c(N)nc3cc(-c4cc[nH]n4)ccc3c21 [Example 10]
270 nM	CC(C)n1c(CNC(=O)C2CCCCO2)nc2c(N)nc3cc(-c4cc[nH]n4)ccc3c21 (centres unmarked) [Example 15]

Each compound was assayed against T2, human TLR7 (Homo sapiens, UniProt Q9NYK1) (assay: In vitro human TLR7 reporter assay (HEK-Blue, NF-kB/AP1-inducible SEAP)). Conditions: HEK-Blue cells co-expressing TLR7 and SEAP reporter, 18 h; read-out: TLR7 agonist EC50.
T2 construct: host or cells: human HEK-Blue cells
T2 sequence (Q9NYK1 27-1049): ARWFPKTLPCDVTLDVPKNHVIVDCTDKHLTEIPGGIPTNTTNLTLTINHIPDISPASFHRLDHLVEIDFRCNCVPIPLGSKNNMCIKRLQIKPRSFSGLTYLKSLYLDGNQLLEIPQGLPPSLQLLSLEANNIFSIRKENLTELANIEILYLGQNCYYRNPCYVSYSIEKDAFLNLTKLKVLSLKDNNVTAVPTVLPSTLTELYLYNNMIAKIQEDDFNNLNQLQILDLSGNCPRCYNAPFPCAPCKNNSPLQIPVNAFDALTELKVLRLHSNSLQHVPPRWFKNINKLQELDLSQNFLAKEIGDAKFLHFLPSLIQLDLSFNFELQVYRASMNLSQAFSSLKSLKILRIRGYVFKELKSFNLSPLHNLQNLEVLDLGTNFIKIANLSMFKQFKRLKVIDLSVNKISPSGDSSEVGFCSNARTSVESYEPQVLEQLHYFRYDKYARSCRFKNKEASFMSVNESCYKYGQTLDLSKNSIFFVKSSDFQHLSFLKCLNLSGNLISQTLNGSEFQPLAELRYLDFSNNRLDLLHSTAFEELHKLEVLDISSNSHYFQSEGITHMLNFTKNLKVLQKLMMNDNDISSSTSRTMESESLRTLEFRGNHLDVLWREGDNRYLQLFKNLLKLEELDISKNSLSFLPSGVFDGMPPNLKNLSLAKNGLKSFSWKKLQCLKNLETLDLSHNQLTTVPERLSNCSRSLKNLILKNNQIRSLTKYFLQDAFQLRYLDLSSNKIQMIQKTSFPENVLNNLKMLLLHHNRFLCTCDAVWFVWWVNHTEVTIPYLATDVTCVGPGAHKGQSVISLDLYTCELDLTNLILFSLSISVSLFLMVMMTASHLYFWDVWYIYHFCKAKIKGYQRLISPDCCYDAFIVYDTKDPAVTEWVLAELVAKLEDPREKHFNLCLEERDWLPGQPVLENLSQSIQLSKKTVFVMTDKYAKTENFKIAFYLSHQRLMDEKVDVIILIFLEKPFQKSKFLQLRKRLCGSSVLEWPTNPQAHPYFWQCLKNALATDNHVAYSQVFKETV
Assay type: cell-based
Procedure: (§1) In Vitro Human TLR7 and TLR8 Binding Reporter Assays
(§2) Logarithmically-growing human HEK-Blue cells co-expressing a TLR7 or TLR8 gene and a NF-kB/AP1-inducible SEAP (secreted embryonic alkaline phosphatase; Invivogen, San Diego, CA) reporter gene are added to individual wells of a 384-well plate (15,000 cells per 20 μL per well) and maintained for 24 h at 37° C. 5% CO2. Test compounds or DMSO are distributed to separate wells the next day using acoustic liquid handling technology (100 nL per well) and cells are subsequently incubated for 18 h at 37° C. 5% CO2. Cellular SEAP production is measured using an Envision plate reader instrument thirty minutes after adding freshly-made Quanti-Blue reagent (prepared by following manufacturer instructions; Invivogen, San Diego, CA) to the HEK-Blue TLR Nf-kB-SEAP cell reactions. All EC50 values (half-maximal effective concentration) are determined using proprietary data analysis software. Normalized EC50 value=absolute value determined by setting 100% Ymax using a reference standard RLU (relative light unit) values from cells treated with 50 μM of the reference standard.

EC50	SMILES
20000 to 100000 nM	Nc1nc2cc(-c3cc[nH]n3)ccc2c2c1nc(CNC(=O)C1CCCCO1)n2CC(F)F (centres unmarked) [Example 19]

Each compound was assayed against T3, human TLR8 (Homo sapiens, UniProt Q9NR97) (assay: In vitro human TLR8 reporter assay (HEK-Blue, NF-kB/AP1-inducible SEAP)). Conditions: HEK-Blue cells co-expressing TLR8 and SEAP reporter, 18 h; read-out: TLR8 agonist EC50.
T3 construct: host or cells: human HEK-Blue cells
T3 sequence (Q9NR97 27-1041): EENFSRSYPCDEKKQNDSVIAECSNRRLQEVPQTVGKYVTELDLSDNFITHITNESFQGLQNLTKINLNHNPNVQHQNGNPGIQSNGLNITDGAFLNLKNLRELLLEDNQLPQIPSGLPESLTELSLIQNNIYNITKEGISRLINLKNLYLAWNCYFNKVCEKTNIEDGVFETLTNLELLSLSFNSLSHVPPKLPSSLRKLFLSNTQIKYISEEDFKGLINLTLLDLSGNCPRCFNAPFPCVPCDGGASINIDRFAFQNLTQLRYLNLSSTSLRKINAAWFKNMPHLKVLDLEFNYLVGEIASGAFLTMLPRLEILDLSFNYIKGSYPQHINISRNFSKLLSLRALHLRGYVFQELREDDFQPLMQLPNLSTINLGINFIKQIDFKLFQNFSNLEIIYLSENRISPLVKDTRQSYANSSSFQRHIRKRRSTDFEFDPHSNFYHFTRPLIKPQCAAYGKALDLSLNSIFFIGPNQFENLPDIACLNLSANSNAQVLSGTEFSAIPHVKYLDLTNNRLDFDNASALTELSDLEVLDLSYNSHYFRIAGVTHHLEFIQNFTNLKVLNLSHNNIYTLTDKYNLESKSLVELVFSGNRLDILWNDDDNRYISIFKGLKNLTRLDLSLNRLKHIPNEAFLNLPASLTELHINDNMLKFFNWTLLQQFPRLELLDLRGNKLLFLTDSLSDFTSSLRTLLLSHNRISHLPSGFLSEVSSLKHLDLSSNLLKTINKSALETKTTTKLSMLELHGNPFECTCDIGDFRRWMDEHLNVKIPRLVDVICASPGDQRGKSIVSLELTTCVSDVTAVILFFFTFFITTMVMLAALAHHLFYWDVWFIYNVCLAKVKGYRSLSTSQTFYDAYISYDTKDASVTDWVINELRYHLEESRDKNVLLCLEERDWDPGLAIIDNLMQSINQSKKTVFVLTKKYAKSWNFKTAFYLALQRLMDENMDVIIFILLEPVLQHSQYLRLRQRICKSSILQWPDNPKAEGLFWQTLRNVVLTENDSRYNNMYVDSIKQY
Assay type: cell-based
Procedure: as §1, §2

EC50	SMILES
20000 to 100000 nM	Nc1nc2cc(-c3cc[nH]n3)ccc2c2c1nc(CNC(=O)C1CCCCO1)n2CC(F)F (centres unmarked) [Example 19]
20000 to 100000 nM	CC(C)n1c(CNC(=O)c2ccccn2)nc2c(N)nc3cc(-c4cc[nH]n4)ccc3c21 [Example 14]
